{
  "source": "patent US12324795B2",
  "about": "“Autophagy activating agent” (WAKUNAGA PHARMACEUTICAL CO., LTD., priority 2018, dated 2025)",
  "type_in_all_cases": "cell-based",
  "key": {"[1]": {"tested_on": "Atg7", "assay": "Western blotting of Atg7 expression (autophagy activation) in okadaic acid-treated human neuroblasts", "details": "SH-SY5Y cells", "protocol": "(§1) Human neuroblastoma cell line SH-SY5Y cells were cultured in a Dulbecco's modified Eagle medium supplemented with 10% fetal bovine serum, and antibiotic penicillin-streptomycin solution, and the cultured cells were used as cells for evaluation test.\nOkadaic acid (at a concentration of 100 nM) and S1PC (at concentrations of 0.03, 0.1, and 0.3 mM) were added to the human neuroblasts for evaluation test prepared in (2) above, and the cells were cultured for 6 hours. After culturing, the cultured cells were washed with a phosphate buffer, and then lysed with RIPA cell lysis buffer (manufactured by Millipore Corporation) diluted 10-fold with purified water containing a protease/phosphatase cocktail inhibitor (manufactured by Thermo Fisher Scientific K.K.). After that, centrifugation was conducted (at 10000 rpm, for 10 minutes, at 4° C.), and the supernatant was used as a cell extract. This cell extract was used to conduct analysis by western blotting in accordance with a usual method. […]\n10 nM okadaic acid, 0.3 mM S1PC, and 10 mM autophagy inhibitor (3-methyladenine) were added to the human neuroblasts for evaluation test prepared in (2) above, and the cells were cultured for 24 hours. A cell extract was prepared in the same manner as in (a) above, and analyzed by western blotting in accordance with a usual method. […]"}, "[2]": {"tested_on": "tau protein", "assay": "Western blotting of tau protein (tau protein-removing effect) in okadaic acid-treated human neuroblasts", "details": "SH-SY5Y cells", "protocol": "as §1\nOkadaic acid (at a concentration of 100 nM) and S1PC (at concentrations of 0.03, 0.1, and 0.3 mM) were added to the human neuroblasts for evaluation test prepared in (2) above, and the cells were cultured for 6 hours. After culturing, the cultured cells were washed with a phosphate buffer, and then lysed with RIPA cell lysis buffer (manufactured by Millipore Corporation) diluted 10-fold with purified water containing a protease/phosphatase cocktail inhibitor (manufactured by Thermo Fisher Scientific K.K.). After that, centrifugation was conducted (at 10000 rpm, for 10 minutes, at 4° C.), and the supernatant was used as a cell extract. This cell extract was used to conduct analysis by western blotting in accordance with a usual method. An anti-Atg7 antibody (manufactured by Cell Signaling Technology, Inc.), an anti-4T-tau antibody (manufactured by Wako Pure Chemical Industries, Ltd.), and an anti-β-actin antibody (manufactured by Wako Pure Chemical Industries, Ltd.) were used as antibodies.\n(§2) 10 nM okadaic acid, 0.3 mM S1PC, and 10 mM autophagy inhibitor (3-methyladenine) were added to the human neuroblasts for evaluation test prepared in (2) above, and the cells were cultured for 24 hours. A cell extract was prepared in the same manner as in (a) above, and analyzed by western blotting in accordance with a usual method. An anti-Atg7 antibody (manufactured by Cell Signaling Technology, Inc.), an anti-4T-tau antibody (manufactured by Wako Pure Chemical Industries, Ltd.), and an anti-β-actin antibody (manufactured by Wako Pure Chemical Industries, Ltd.) were used as antibodies.\nas §2, with “50” for “10”, “acid and” for “acid,”, “S1PC or SAC” for “S1PC, and 10 mM autophagy inhibitor (3-methyladenine)”, “6” for “24”, “An” for “An anti-Atg7 antibody (manufactured by Cell Signaling Technology, Inc.), an”, “Ltd.)” for “Ltd.),”"}, "[3]": {"tested_on": "caspase-3", "assay": "Western blotting of caspase-3 activation (apoptosis inhibitory effect) in okadaic acid-treated human neuroblasts", "details": "SH-SY5Y cells, 100 nM okadaic acid, 0.3 mM S1PC, 6 hours, FIG. 3", "protocol": "as §1\nas §2, with “100” for “10”, “acid and” for “acid,”, “S1PC” for “S1PC, and 10 mM autophagy inhibitor (3-methyladenine)”, “6” for “24”, “anti-caspase-3” for “anti-Atg7”, “Inc.)” for “Inc.), an anti-4T-tau antibody (manufactured by Wako Pure Chemical Industries, Ltd.),”"}, "[4]": {"tested_on": "LC3B-II", "assay": "Western blotting of LC3B-II expression in rotenone-treated human neuroblasts", "details": "SH-SY5Y cells, 10 μM rotenone, 0.3 mM S1PC, 1 mM 3-methyladenine, 3 hours, FIG. 5", "protocol": "as §1\n(§3) 10 μM rotenone, 0.3 mM S1PC, and 1 mM autophagy inhibitor (3-methyladenine) were added to the human neuroblasts for evaluation test prepared in (2) above, and the cells were cultured for 3 hours. A cell extract was prepared in the same manner as in (a) above, and analyzed by western blotting in accordance with a usual method. An anti-α-synuclein antibody, an anti-LC3B antibody (manufactured by Cell Signaling Technology, Inc.), and an anti-β-actin antibody (manufactured by MEDICAL & BIOLOGICAL LABORATORIES CO., LTD.) were used as antibodies."}, "[5]": {"tested_on": "α-synuclein protein", "assay": "Western blotting of α-synuclein protein (α-synuclein protein-removing effect) in rotenone-treated human neuroblasts", "details": "SH-SY5Y cells, 3 hours", "protocol": "as §1, §3\nas §3, with “500 nM” for “10 μM”, “rotenone, and” for “rotenone,”, “S1PC or SAC” for “S1PC, and 1 mM autophagy inhibitor (3-methyladenine)”, “(2),” for “(2) above,”, “used. […] Therefore, S1PC is considered to be useful for Parkinson's disease, for example, accompanied by α-synuclein protein accumulation.” for “used as antibodies.”"}, "[6]": {"details": "10 nM okadaic acid, 0.3 mM S1PC, 10 mM 3-methyladenine, 24 hours, FIG. 2"}, "[7]": {"details": "okadaic acid 100 nM, S1PC 0.03, 0.1 and 0.3 mM, 6 hours, FIG. 1"}},
  "data": [
    {"smiles": "CC=CSCC(N)C(=O)O", "note": "(centres unmarked) [S1PC, S-1-propenylcysteine]", "values": [
      {"measurement": "Atg7 expression-increasing effect with autophagy inhibitor", "setting": "[1]; [6]", "value": "suppressed by adding the autophagy inhibitor"},
      {"measurement": "Atg7 expression", "setting": "[1]; [7]", "value": "increased"},
      {"measurement": "tau protein-removing effect with autophagy inhibitor", "setting": "[2]; [6]", "value": "suppressed by adding the autophagy inhibitor"},
      {"measurement": "tau protein-removing effect compared with SAC", "setting": "[2]; 50 nM okadaic acid, 0.3 mM S1PC or SAC, 6 hours, FIG. 4", "value": "superior to SAC"},
      {"measurement": "tau protein", "setting": "[2]; 50 nM okadaic acid, 0.3 mM, 6 hours, FIG. 4", "value": "decreased"},
      {"measurement": "removal of tau proteins", "setting": "[2]; [7]", "value": "promoted removal"},
      {"measurement": "activation of caspase-3", "setting": "[3]", "value": "suppressed"},
      {"measurement": "LC3B-II expression-increasing effect with autophagy inhibitor", "setting": "[4]", "value": "suppressed by adding the autophagy inhibitor"},
      {"measurement": "α-synuclein protein-removing effect compared with SAC", "setting": "[5]; 500 nM rotenone, 0.3 mM S1PC or SAC, FIG. 6", "value": "superior to SAC"},
      {"measurement": "α-synuclein protein", "setting": "[5]; 500 nM rotenone, 0.3 mM, FIG. 6", "value": "decreased"},
      {"measurement": "α-synuclein protein-removing effect with autophagy inhibitor", "setting": "[5]; 10 μM rotenone, 0.3 mM S1PC, 1 mM 3-methyladenine, FIG. 5", "value": "suppressed by adding the autophagy inhibitor"}
    ]}
  ]
}
